In ChEMBL document CHEMBL3885861, “Open TG-GATES”:

Organism: Rattus norvegicus
Assay: Open TG-GATES - Regimen: Daily Repeat
Type: toxicity, organism-based, Sprague-Dawley
Parameters: regimen Daily Repeat, gender Male, age 6 weeks
Settings: in vivo, po, route gavage; for Bas / Eos / Hb / Ht / Lym / MCH / MCHC / MCV / Mono / Neu / Plat / RBC / Ret / WBC: tissue Blood; for KIDNEY_L / KIDNEY_R / KIDNEY_TOTAL: tissue Kidney; for LIVER: tissue Liver; for A/G / ALP / ALT / AST / BUN / CRE / Ca / Cl / DBIL / GLC / IP / K / LDH / Na / PL / RALB / TBIL / TC / TG / TP / gamma-GTP: tissue Plasma
[1] = 0 mg/kg, 72 h, dose level Control, time 3 day
[2] = 0 mg/kg, […], dose level Control, time 7 day
[3] = 0 mg/kg, […], dose level Control, time 14 day
[4] = 0 mg/kg, […], dose level Control, time 28 day
[5] = 300 mg/kg, 72 h, dose level Low, time 3 day
[6] = 300 mg/kg, […], dose level Low, time 7 day
[7] = 300 mg/kg, […], dose level Low, time 14 day
[8] = 300 mg/kg, […], dose level Low, time 28 day

CC(N)=O [ACETAMIDE]
TERMINAL_BW [1]: 236.7 g
Bas [1]: 0%
Eos [1]: 1%
Hb [1]: 13.1 g/dL
Ht [1]: 40.5%
Lym [1]: 71.4%
MCH [1]: 20 pg
MCHC [1]: 32.4%
MCV [1]: 61.6 fL
Mono [1]: 3.6%
Neu [1]: 23%
Plat [1]: 126.3 x10_4/uL
RBC [1]: 658.2 x10_4/ul
Ret [1]: 7.1%
WBC [1]: 126.7 x10_2/uL
KIDNEY_L [1]: 1 g
KIDNEY_R [1]: 1 g
KIDNEY_TOTAL [1]: 2 g
LIVER [1]: 11.1 g
A/G [1]: 1
ALP [1]: 1741.8 IU/L
ALT [1]: 39.8 IU/L
AST [1]: 71.6 IU/L
BUN [1]: 15.2 mg/dL
CRE [1]: 0.1 mg/dL
Ca [1]: 10.7 mg/dL
Cl [1]: 105.6 meq/L
DBIL [1]: 0.004 mg/dL
GLC [1]: 196 mg/dL
IP [1]: 6.7 mg/dL
K [1]: 4.4 meq/L
LDH [1]: 180.4 IU/L
Na [1]: 140.9 meq/L
PL [1]: 162.6 mg/dL
RALB [1]: 2.8 g/dL
TBIL [1]: 0.002 mg/dL
TC [1]: 85.2 mg/dL
TG [1]: 108.8 mg/dL
TP [1]: 5.6 g/dL
gamma-GTP [1]: 0.8 IU/L
TERMINAL_BW [2]: 276.9 g
TERMINAL_BW [3]: 335.4 g
TERMINAL_BW [4]: 415.6 g
Bas [2]: 0%
Eos [2]: 1%
Hb [2]: 12.7 g/dL
Ht [2]: 38.9%
Lym [2]: 75.2%
MCH [2]: 19.9 pg
MCHC [2]: 32.7%
MCV [2]: 60.8 fL
Mono [2]: 3.2%
Neu [2]: 19.8%
Plat [2]: 131.8 x10_4/uL
RBC [2]: 640.2 x10_4/ul
Ret [2]: 6.7%
WBC [2]: 130.3 x10_2/uL
Bas [3]: 0%
Eos [3]: 1%
Hb [3]: 13.4 g/dL
Ht [3]: 40.3%
Lym [3]: 79.8%
MCH [3]: 19.6 pg
MCHC [3]: 33.2%
MCV [3]: 58.9 fL
Mono [3]: 3%
Neu [3]: 15.2%
Plat [3]: 119.7 x10_4/uL
RBC [3]: 685.6 x10_4/ul
Ret [3]: 5.2%
WBC [3]: 124.3 x10_2/uL
Bas [4]: 0%
Eos [4]: 1%
Hb [4]: 13.5 g/dL
Ht [4]: 41.1%
Lym [4]: 82.2%
MCH [4]: 18.5 pg
MCHC [4]: 32.8%
MCV [4]: 56.3 fL
Mono [4]: 2.2%
Neu [4]: 14.2%
Plat [4]: 99.3 x10_4/uL
RBC [4]: 729.2 x10_4/ul
Ret [4]: 4.1%
WBC [4]: 118.1 x10_2/uL
KIDNEY_L [2]: 1.1 g
KIDNEY_R [2]: 1.2 g
KIDNEY_TOTAL [2]: 2.3 g
KIDNEY_L [3]: 1.3 g
KIDNEY_R [3]: 1.3 g
KIDNEY_TOTAL [3]: 2.6 g
KIDNEY_L [4]: 1.4 g
KIDNEY_R [4]: 1.4 g
KIDNEY_TOTAL [4]: 2.8 g
LIVER [2]: 12.8 g
LIVER [3]: 14.7 g
LIVER [4]: 16 g
A/G [2]: 0.9
ALP [2]: 1570 IU/L
ALT [2]: 38.2 IU/L
AST [2]: 64.2 IU/L
BUN [2]: 16.1 mg/dL
CRE [2]: 0.2 mg/dL
Ca [2]: 10.5 mg/dL
Cl [2]: 103.4 meq/L
DBIL [2]: 0 mg/dL
GLC [2]: 195.2 mg/dL
IP [2]: 6.6 mg/dL
K [2]: 4.7 meq/L
LDH [2]: 164.6 IU/L
Na [2]: 140.6 meq/L
PL [2]: 148.6 mg/dL
RALB [2]: 2.8 g/dL
TBIL [2]: 0 mg/dL
TC [2]: 72.6 mg/dL
TG [2]: 135.5 mg/dL
TP [2]: 5.7 g/dL
gamma-GTP [2]: 0.7 IU/L
A/G [3]: 0.9
ALP [3]: 1394.4 IU/L
ALT [3]: 33.2 IU/L
AST [3]: 64.6 IU/L
BUN [3]: 17.9 mg/dL
CRE [3]: 0.2 mg/dL
Ca [3]: 10.4 mg/dL
Cl [3]: 103.5 meq/L
DBIL [3]: 0 mg/dL
GLC [3]: 196.6 mg/dL
IP [3]: 6.6 mg/dL
K [3]: 4.2 meq/L
LDH [3]: 170.6 IU/L
Na [3]: 141.6 meq/L
PL [3]: 156 mg/dL
RALB [3]: 2.7 g/dL
TBIL [3]: 0 mg/dL
TC [3]: 72 mg/dL
TG [3]: 191.9 mg/dL
TP [3]: 5.8 g/dL
gamma-GTP [3]: 0.8 IU/L
A/G [4]: 0.8
ALP [4]: 983.4 IU/L
ALT [4]: 34.2 IU/L
AST [4]: 64.6 IU/L
BUN [4]: 16.3 mg/dL
CRE [4]: 0.2 mg/dL
Ca [4]: 10.3 mg/dL
Cl [4]: 103.9 meq/L
DBIL [4]: 0.004 mg/dL
GLC [4]: 204.8 mg/dL
IP [4]: 6.3 mg/dL
K [4]: 4.1 meq/L
LDH [4]: 179.6 IU/L
Na [4]: 142.3 meq/L
PL [4]: 133.2 mg/dL
RALB [4]: 2.7 g/dL
TBIL [4]: 0.002 mg/dL
TC [4]: 60.2 mg/dL
TG [4]: 133.7 mg/dL
TP [4]: 6 g/dL
gamma-GTP [4]: 0.9 IU/L
TERMINAL_BW [5]: 239.9 g
Bas [5]: 0%
Eos [5]: 0.8%
Hb [5]: 12.4 g/dL
Ht [5]: 38.3%
Lym [5]: 75.8%
MCH [5]: 20.5 pg
MCHC [5]: 32.5%
MCV [5]: 63 fL
Mono [5]: 3.4%
Neu [5]: 19.4%
Plat [5]: 135.2 x10_4/uL
RBC [5]: 608.2 x10_4/ul
Ret [5]: 8.2%
WBC [5]: 104.5 x10_2/uL
KIDNEY_L [5]: 1 g
KIDNEY_R [5]: 1 g
KIDNEY_TOTAL [5]: 2.1 g
LIVER [5]: 11.3 g
A/G [5]: 1
ALP [5]: 2008.8 IU/L
ALT [5]: 36.4 IU/L
AST [5]: 65.4 IU/L
BUN [5]: 17.6 mg/dL
CRE [5]: 0.1 mg/dL
Ca [5]: 10.8 mg/dL
Cl [5]: 103.4 meq/L
DBIL [5]: 0.002 mg/dL
GLC [5]: 184.6 mg/dL
IP [5]: 6.6 mg/dL
K [5]: 4.5 meq/L
LDH [5]: 138.4 IU/L
Na [5]: 139.5 meq/L
PL [5]: 157.2 mg/dL
RALB [5]: 2.8 g/dL
TBIL [5]: 0.006 mg/dL
TC [5]: 80.4 mg/dL
TG [5]: 137.5 mg/dL
TP [5]: 5.5 g/dL
gamma-GTP [5]: 0.8 IU/L
TERMINAL_BW [6]: 271.7 g
TERMINAL_BW [7]: 327.7 g
TERMINAL_BW [8]: 432.9 g
Bas [6]: 0%
Eos [6]: 0.8%
Hb [6]: 12.5 g/dL
Ht [6]: 38.3%
Lym [6]: 76.4%
MCH [6]: 19.8 pg
MCHC [6]: 32.7%
MCV [6]: 60.6 fL
Mono [6]: 3.4%
Neu [6]: 18.4%
Plat [6]: 115.7 x10_4/uL
RBC [6]: 631.6 x10_4/ul
Ret [6]: 6.4%
WBC [6]: 120.4 x10_2/uL
Bas [7]: 0%
Eos [7]: 1%
Hb [7]: 13.2 g/dL
Ht [7]: 39.9%
Lym [7]: 76.8%
MCH [7]: 19.6 pg
MCHC [7]: 33.2%
MCV [7]: 59.2 fL
Mono [7]: 2.8%
Neu [7]: 19%
Plat [7]: 105.9 x10_4/uL
RBC [7]: 674.2 x10_4/ul
Ret [7]: 4.8%
WBC [7]: 126.4 x10_2/uL
Bas [8]: 0%
Eos [8]: 1%
Hb [8]: 14.1 g/dL
Ht [8]: 42.1%
Lym [8]: 77.8%
MCH [8]: 19.1 pg
MCHC [8]: 33.5%
MCV [8]: 57.1 fL
Mono [8]: 2.4%
Neu [8]: 17.8%
Plat [8]: 111 x10_4/uL
RBC [8]: 737.8 x10_4/ul
Ret [8]: 3.2%
WBC [8]: 165 x10_2/uL
KIDNEY_L [6]: 1.1 g
KIDNEY_R [6]: 1.1 g
KIDNEY_TOTAL [6]: 2.2 g
KIDNEY_L [7]: 1.3 g
KIDNEY_R [7]: 1.3 g
KIDNEY_TOTAL [7]: 2.6 g
KIDNEY_L [8]: 1.5 g
KIDNEY_R [8]: 1.5 g
KIDNEY_TOTAL [8]: 3 g
LIVER [6]: 12.8 g
LIVER [7]: 14.1 g
LIVER [8]: 17.3 g
A/G [6]: 0.9
ALP [6]: 1504 IU/L
ALT [6]: 39.4 IU/L
AST [6]: 73.4 IU/L
BUN [6]: 19.4 mg/dL
CRE [6]: 0.2 mg/dL
Ca [6]: 10.5 mg/dL
Cl [6]: 104.1 meq/L
DBIL [6]: 0 mg/dL
GLC [6]: 187.4 mg/dL
IP [6]: 6.3 mg/dL
K [6]: 4.7 meq/L
LDH [6]: 205.8 IU/L
Na [6]: 141.3 meq/L
PL [6]: 149.6 mg/dL
RALB [6]: 2.8 g/dL
TBIL [6]: 0 mg/dL
TC [6]: 72 mg/dL
TG [6]: 141.8 mg/dL
TP [6]: 5.8 g/dL
gamma-GTP [6]: 0.5 IU/L
A/G [7]: 0.9
ALP [7]: 1341.2 IU/L
ALT [7]: 34.4 IU/L
AST [7]: 68.6 IU/L
BUN [7]: 17.7 mg/dL
CRE [7]: 0.2 mg/dL
Ca [7]: 10.4 mg/dL
Cl [7]: 104.9 meq/L
DBIL [7]: 0 mg/dL
GLC [7]: 197.4 mg/dL
IP [7]: 6.3 mg/dL
K [7]: 4.4 meq/L
LDH [7]: 244 IU/L
Na [7]: 141.1 meq/L
PL [7]: 147.4 mg/dL
RALB [7]: 2.8 g/dL
TBIL [7]: 0.002 mg/dL
TC [7]: 71.2 mg/dL
TG [7]: 132 mg/dL
TP [7]: 5.8 g/dL
gamma-GTP [7]: 0.7 IU/L
A/G [8]: 0.9
ALP [8]: 1160.4 IU/L
ALT [8]: 41.2 IU/L
AST [8]: 75.8 IU/L
BUN [8]: 20.1 mg/dL
CRE [8]: 0.2 mg/dL
Ca [8]: 10.5 mg/dL
Cl [8]: 104.1 meq/L
DBIL [8]: 0.004 mg/dL
GLC [8]: 211.2 mg/dL
IP [8]: 6.3 mg/dL
K [8]: 4.3 meq/L
LDH [8]: 256 IU/L
Na [8]: 141.8 meq/L
PL [8]: 158.6 mg/dL
RALB [8]: 2.8 g/dL
TBIL [8]: 0 mg/dL
TC [8]: 77 mg/dL
TG [8]: 175.1 mg/dL
TP [8]: 6 g/dL
gamma-GTP [8]: 0.9 IU/L
